Source: patent publication US20060252714A1, “Pharmaceutical compositions and methods for treating multidrug resistant cancer” (priority 2003, published 2006)
Counter-ions that a name gives are not always drawn. Like-named read-outs stand apart in the source and are kept apart here.

Key:
[1] = cited from earlier work; for Toxicity: at the toxic dose range of the same line
[2] = tested on: MCF-7/adr cells; assay: Breast cancer clonogenic assay, MCF-7/adr; assay type: cell-based, Human; settings: for IC90: Homo sapiens, NCI/ADR-RES, absence of ketotifen, read-out: IC90 of cytotoxic drugs on MCF-7/adr, −ke
Method: MCF-7/adr cells were treated with different concentrations of reversal compounds with or without 2 μM doxorubicin for 24 hours. Cells were harvested, and plated for growth of breast cancer colonies in triplicates. […] DXN: doxorubicin.
FIG. 2 Influence of 10 μM of ketotifen on the toxicities of four cytotoxic drugs. MCF-7/adr cells were treated with different concentrations of chemotherapeutic agents in the presence or absence of 10 μM ketotifen for 24 hours. Cells were harvested, washed and plated for growth of breast cancer colonies as described in the Materials and Methods. […] Ke: ketotifen.
The toxicity of the cytotoxic drugs was measured by clonogenicity assay.
(§1) MCF-7/mx and MCF-7/vp cell lines were also used. Other cell lines could also be used. […] The MCF-7/vp cell line was selected with etoposide and overexpresses Multidrug Resistance-associated Protein gene (MRP). All the cell lines were grown routinely as monolayer culture in Dulbecco's Minimal Essential Media (DME) supplemented with L-glutamine (2 mM), penicillin, streptomycin and 10% heat-inactivated fetal bovine serum SUBS, GIBCO) in an atmosphere of 5% CO2 at 37° C. The cell lines were passaged weekly.
(§2) Both adherent and non-adherent cells were collected and washed with fresh medium. Cell aliquots (5×10^3) were plated in 1 ml of 0.3% agar over 1 ml of 0.5% agar underlayer prepared in IMDM containing 10% horse serum (GIBCO). The upper layer consisted of 20% FBS, 10 μg/ml of bovine insulin, 2.5 mg/ml of hydrocortisone, 5×10^−7M of 17-b-estradiol (Sigma) and 50 ng/ml of EGF (R & D Systems).

[3] = tested on: MCF-7/wt; assay: Breast cancer clonogenic assay, MCF-7/wt; assay type: cell-based; settings: Homo sapiens, MCF7, 24 hours treatment, clonogenicity, read-out: IC90 of cytotoxic drugs on MCF-7/wt
Method: (§3) The toxicity of the cytotoxic drugs was measured by clonogenicity assay. […] Beginning at 1 μM, ketotifen restored doxorubicin toxicity while at 10 μM, the MDR phenotype of MCF-7/adr cells was completely reversed. Over this concentration range, ketotifen itself is non-toxic to MCP-7/adr cells. […] As summarized in Table 3, IC90 levels on MCF-7/adr cells in the presence of ketotifen are almost identical to those for parental MCF-7 cells. […] Thus, ketotifen is a specific reversing agent for MDR associated with P-gp.
as §1, with “MCF-7 (MCF-7/wt) and its multidrug resistant variant MCF-7/adr cells were used. MCF-7/mx” for “MCF-7/mx”
as §2, with “Exponentially growing MCF-7/wt and its three mutants MCF-7/adr, MCF-7/mx and MCF-7/vp were trypsinized, washed with fresh medium and plated in 6-well plates at a density of 1×10^5/ml. […] Both” for “Both”, “Systems). Colonies larger than 50 μm in size were scored after 14 days of incubation at 37° C. in a humidified atmosphere of 5% CO2 in air.” for “Systems).”

[4] = Modulation of doxorubicin toxicity: survival; settings: doxorubicin 15 mg/kg i.p., alone or after labelled reversal agent 25 mg/kg i.p.
Source text: Female Balb/c mice (8-10 weeks of age, 20-22 g of body weight) were purchased from Jackson Laboratory (Maine, USA). Protocols were approved by the Animal Care Committee of the University Health Network. […] All the treatments were administrated via i.p. After treatment, mice were kept in sterile environment for six to eight weeks. […] Three mice from each group were sacrificed on day 4-post treatment. Hearts were removed immediately and fixed in 10% neutral buffered formalin. Tissue sections were made from heart tissue and stained with hematoxylin and eosin or with 1% Toluidine blue to identify mast cells. All the slides were evaluated by light microscopy for cardiac damage, mast cell density and degranulation.
All the colony data were analyzed by two-way analysis of variance (ANOVA), with differences between individual means determined by Bonferroni's post-tests. Data were expressed as means ±SEM. The Kaplan-Meier estimate was used to determine differences in the survival periods for mice following different drug combination treatments.

[5] = tested on: MCF-7/adr cells; assay: Breast cancer clonogenic assay, MCF-7/adr; assay type: cell-based; settings: Homo sapiens, NCI/ADR-RES, presence of 10 mM of ketotifen (so in the source), read-out: IC90 of cytotoxic drugs on MCF-7/adr, +ke
[6] = tested on: MCF-7/mx; assay: Breast cancer clonogenic assay, MCF-7/mx (BCRP overexpressing); assay type: cell-based, Human
Method: (§4) FIG. 3 Ketotifen fails to reverse MDR of MCF-7/mx and MCF-7/vp cell lines. MCF-7/mx and MCF-7/vp cell lines were treated and assayed as described in FIGS. 1 and 2. […] Ke: ketotifen.
as §3
(§5) MCF-7 (MCF-7/wt) and its multidrug resistant variant MCF-7/adr cells were used. MCF-7/mx and MCF-7/vp cell lines were also used. Other cell lines could also be used. […] The MCF-7/vp cell line was selected with etoposide and overexpresses Multidrug Resistance-associated Protein gene (MRP). […]
(§6) Exponentially growing MCF-7/wt and its three mutants MCF-7/adr, MCF-7/mx and MCF-7/vp were trypsinized, washed with fresh medium and plated in 6-well plates at a density of 1×10^5/ml. […] Colonies larger than 50 μm in size were scored after 14 days of incubation at 37° C. in a humidified atmosphere of 5% CO2 in air.

[7] = tested on: MCF-7/vp cells; assay: Breast cancer clonogenic assay, MCF-7/vp (MRP overexpressing); assay type: cell-based, Human
Method: as §4, §3, §5, §6

[8] = tested on: P388/adr murine leukemia cells; assay: p388 multi-drug resistant leukemia model; assay type: in vivo, Mice; settings: ketotifen 75 mg/kg i.p. 30 minutes before doxorubicin 4 mg/kg i.p., once per week
[9] = target: P-gp (Homo sapiens, UniProt P08183); settings: 2.5 h, 2 μM
Sequence of P-gp (P08183 whole entry): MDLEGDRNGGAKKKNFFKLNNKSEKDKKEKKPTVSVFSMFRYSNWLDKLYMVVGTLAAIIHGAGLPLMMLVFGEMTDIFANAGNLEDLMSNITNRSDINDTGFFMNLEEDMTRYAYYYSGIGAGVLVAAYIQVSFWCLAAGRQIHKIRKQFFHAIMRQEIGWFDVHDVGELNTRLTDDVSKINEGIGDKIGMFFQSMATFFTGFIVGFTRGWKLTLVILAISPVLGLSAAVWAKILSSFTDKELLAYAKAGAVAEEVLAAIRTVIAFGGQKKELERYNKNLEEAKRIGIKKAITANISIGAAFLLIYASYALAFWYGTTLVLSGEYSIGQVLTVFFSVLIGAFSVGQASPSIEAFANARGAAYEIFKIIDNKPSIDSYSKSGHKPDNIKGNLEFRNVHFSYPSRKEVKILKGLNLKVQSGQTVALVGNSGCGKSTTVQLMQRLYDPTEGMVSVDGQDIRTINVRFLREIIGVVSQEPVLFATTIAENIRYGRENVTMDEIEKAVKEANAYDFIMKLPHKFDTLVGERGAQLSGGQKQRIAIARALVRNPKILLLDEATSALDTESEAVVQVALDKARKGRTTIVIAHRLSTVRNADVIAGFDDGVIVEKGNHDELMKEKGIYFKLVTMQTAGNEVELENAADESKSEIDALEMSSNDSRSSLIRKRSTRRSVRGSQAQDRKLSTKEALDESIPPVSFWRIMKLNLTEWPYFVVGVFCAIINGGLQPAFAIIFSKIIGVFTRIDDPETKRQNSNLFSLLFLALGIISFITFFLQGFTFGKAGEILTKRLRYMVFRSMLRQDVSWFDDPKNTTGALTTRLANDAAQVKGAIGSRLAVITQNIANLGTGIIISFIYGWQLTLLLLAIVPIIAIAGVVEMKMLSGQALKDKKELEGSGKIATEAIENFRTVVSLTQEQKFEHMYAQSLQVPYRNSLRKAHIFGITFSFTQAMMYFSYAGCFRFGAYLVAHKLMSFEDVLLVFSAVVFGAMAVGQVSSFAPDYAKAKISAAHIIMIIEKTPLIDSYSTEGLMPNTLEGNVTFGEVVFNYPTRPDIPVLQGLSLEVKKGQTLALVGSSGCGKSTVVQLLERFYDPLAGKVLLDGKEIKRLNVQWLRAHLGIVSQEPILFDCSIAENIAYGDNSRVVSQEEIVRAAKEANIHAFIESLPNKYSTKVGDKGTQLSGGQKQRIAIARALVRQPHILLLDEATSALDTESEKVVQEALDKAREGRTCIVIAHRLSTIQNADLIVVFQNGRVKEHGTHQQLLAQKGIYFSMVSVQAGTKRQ

[10] = with 2 μM doxorubicin, 24 hours

CO[C@@]12[C@H](COC(N)=O)C3=C(C(=O)C(C)=C(N)C3=O)N1C[C@@H]1N[C@@H]12 [Mitomycin]
Toxic dose range ([1]; IV unless otherwise indicated): Conventional dose

COc1cc(NS(C)(=O)=O)ccc1Nc1c2ccccc2nc2ccccc12 [Amsacrine]
Toxicity [1]: Ventricular arrhythmia

COc1cccc2c1C(=O)c1c(O)c3c(c(O)c1C2=O)C[C@@](O)(C(=O)CO)C[C@@H]3O[C@H]1C[C@H](N)[C@H](O)[C@H](C)O1 [Doxorubicin, 8S,10S)-10-[(3-amino-2,3,6-trideoxy-a-L-lyxo-hexopyranosyl)oxy]-8-glycolyl-7,8,9,10-tetrahydro-6,8,11-trihydroxy-1-methoxy-5,12-naphthacenedione hydrochloride]
IC90 [2]: > 10000 nM
IC90 [3]: 120 nM
median survival time [4]: 19.3 days
survival rate at day 30 [4]: 42%
IC90 [5]: 180 nM

CS(=O)(=O)OCCCCOS(C)(=O)=O [Bisulfan]
Toxic dose range ([1]; IV unless otherwise indicated): Oral daily dose
Toxicity [1]: Endocardial fibrosis

CC(=O)O[C@H]1C(=O)[C@@]2(C)[C@H]([C@H](OC(=O)c3ccccc3)[C@]3(O)C[C@H](OC(=O)[C@H](O)[C@@H](NC(=O)c4ccccc4)c4ccccc4)C(C)=C1C3(C)C)[C@]1(OC(C)=O)CO[C@@H]1C[C@@H]2O [Paclitaxel]
Toxicity [1]: Bradycardia

O=P1(N(CCCl)CCCl)NCCCO1 (centres unmarked) [Cyclophosphamide]
Toxic dose range ([1]; over 2 d, IV): >100 to 120 mg/kg

CN1CCC(=C2c3ccccc3CC(=O)c3sccc32)CC1.O=C(O)/C=C/C(=O)O [ketotifen, 4-(1-Methyl-4-piperidylidene)-4H-benzo[4,5]cyclohepta[1,2-b] thiophen-10(9H)-one hydrogen fumarate]
sensitivity to mitoxantrone, VP-16 and vinblastine ([2]; 10 μM ketotifen): restored
reversal of doxorubicin resistance ([2]; ketotifen compared with verapamil): reverse resistance at similar concentrations
toxicity of ketotifen itself ([2]; over 1 to 10 μM, without doxorubicin): non-toxic
ketotifen concentration at which MDR phenotype was completely reversed [2, 10]: 10 µM
ketotifen concentration from which doxorubicin toxicity is restored [2, 10]: ≥ 1 µM
influence on toxicity of mitoxantrone [6]: influenced neither
influence on toxicity of VP-16 [7]: influenced neither
median survival time [4]: 23.2 days
survival rate at day 30 [4]: 57%
extension of survival compared to doxorubicin alone [8]: 2 days
increase of doxorubicin relative fluorescence [9]: 50%

COc1cc([C@@H]2c3cc4c(cc3[C@@H](O[C@@H]3O[C@@H]5CO[C@@H](C)O[C@H]5[C@H](O)[C@H]3O)[C@H]3COC(=O)[C@H]23)OCO4)cc(OC)c1O [VP-16, etoposide]
IC90 [2]: 220000 nM
IC90 [3]: 17000 nM
IC90 [5]: 20000 nM

O=c1[nH]cc(F)c(=O)[nH]1 [Fluorouracil]
Toxicity [1]: Angina/myocardial infarction

CC[C@]1(O)C[C@H]2CN(CCc3c([nH]c4ccccc34)[C@@](C(=O)OC)(c3cc4c(cc3OC)N(C=O)[C@H]3[C@@](O)(C(=O)OC)[C@H](OC(C)=O)[C@]5(CC)C=CCN6CC[C@]43[C@@H]65)C2)C1 [Vincristine]
Toxic dose range ([1]; IV unless otherwise indicated): Conventional dose
Toxicity [1]: Myocardial Infarction

CC[C@]1(O)C[C@@H]2CN(CCc3c([nH]c4ccccc34)[C@@](C(=O)OC)(c3cc4c(cc3OC)N(C)[C@H]3[C@@](O)(C(=O)OC)[C@H](OC(C)=O)[C@]5(CC)C=CCN6CC[C@]43[C@@H]65)C2)C1 [Vinblastine]
IC90 [2]: 410000 nM
IC90 [3]: 800 nM
IC90 [5]: 1200 nM

O=C1c2c(O)ccc(O)c2C(=O)c2c(NCCNCCO)ccc(NCCNCCO)c21 [Mitoxantrone]
IC90 [2]: 220 nM
IC90 [3]: 10 nM
IC90 [5]: 20 nM

COc1cccc2c1C(=O)c1c(O)c3c(c(O)c1C2=O)C[C@@](O)(C(C)=O)C[C@@H]3O[C@H]1C[C@H](N)[C@H](O)[C@H](C)O1 [Daunorubicin]
Toxicity [1]: Same toxocity as doxorubicin
Toxic dose range ([1]; total dose, IV): >550 mg/m^2

COc1ccc(CCN(C)CCCC(C#N)(c2ccc(OC)c(OC)c2)C(C)C)cc1OC (centres unmarked) [verapamil]
median survival time [4]: 12.3 days
survival rate at day 30 [4]: 0%
